Test results reported in patent US5126373A, “Composition for parenteral and oral nutrition” (priority 1987, dated 1992).

How the values were obtained:
[1] = Preliminary results with 1,3-pentanediol and its esters; conditions: liver
[2] = Blood glucose levels in unanesthetized young pigs; format: in vivo, pig; conditions: intravenous infusion 3 h or intragastric bolus
Excerpt: (§1) The pigs were given equicaloric amount of either:

[3] = tested on: ketone bodies (R-3-hydroxybutyrate+S-3-hydroxybutyrate+acetoacetate); experiment: Total ketone body concentrations in pigs; format: in vivo, pig
Description: as §1
The total concentration of physiological and unphysiological ketone bodies (R-3-hydroxybutyrate+S-3-hydroxybutyrate+acetoacetate) never exceeded 0.8 mM in the animal receiving RS-butanediol by the continuous intravenous route. […] Therefore, there was no marked acidosis in any of the groups.

[4] = Noted metabolism of esters compared with butanediol alone; format: in vivo; conditions: compared with physiological oxido-reduction ratio
[5] = cited from earlier work
[6] = Volume of distribution of butanediol; format: in vivo
Excerpt: In other experiments, the volume of distribution of butanediol is equal to 2/3 of the body wt, i.e. total body water.

[7] = tested on: ethanol withdrawal syndrome; conditions: rats; cited from earlier work
[8] = tested on: mitochondrial [NADH]/[NAD^+ ]; experiment: Redox parameters in blood of pigs; format: in vivo, pig; conditions: reflects the mitochondrial [NADH]/[NAD^+ ]
Excerpt: as §1

[9] = RS-butanediol concentration in blood of pigs; format: in vivo, pig
Excerpt: as §1

alloxan-diabetic rats = conditions: cited from earlier work
mammalian cells = conditions: cited from earlier work
[NADH]/[NAD^+ ] = inhibition of gluconeogenesis and alcoholic hypoglycemia; cited from earlier work

CCC(O)CCO (racemic) [RS-1,3-pentanediol]
gluconeogenic and ketogenic substrate [1]: is a gluconeogenic and a ketogenic substrate

CC(O)CCO (racemic) [RS-butanediol, 1,3-butanediol]
Glucose levels / hypoglycemic effect [2]: do not exert a hypoglycemic effect | total concentration of ketone bodies ([3]; continuous intravenous infusion): ≤ 0.8 mM | total ketone body concentration ([3]; intragastric bolus): about 1.5 mM | 3-hydroxybutyrate and acetoacetate ratio after metabolism in the liver [4]: more reduced than physiological | adverse effect ([5]; diet containing 5%, humans): no adverse effect | nitrogen sparing ([5]; diet containing 5%, humans): nitrogen was spared | metabolism in the liver ([5]; via alcohol and aldehyde dehydrogenase): metabolised in the liver to DL-3-hydroxybutyrate | osmotic effect ([6]; butanediol liberated in blood from plasma esterases): does not exert any osmotic effect | rate of distribution into total body water ([6]; compared with a tracer of water): at the same rate as a tracer of water | volume of distribution ([6]; i.e. total body water): 2/3 | effect on ethanol withdrawal syndrome [7]: alleviates the ethanol withdrawal syndrome in rats | [R-3-hydroxybutyrate]/[acetoacetate] ratio [8]: increased | linear decrease of butanediol concentration in blood, time ([9]; after intragastric bolus): 4 h | concentration at 3 h ([9]; pig, blood, constant intravenous infusion for 3 h, 25% of hourly caloric requirement, read-out: RS-butanediol (free butanediol) concentration): 600 µM | Cmax ([9]; pig, blood, intragastric bolus, 15% of daily caloric requirements, read-out: concentration of butanediol in the blood, peak): 25000 µM

C[C@H](O)CCO [L-1,3-butanediol]
blood glucose level (alloxan-diabetic rats; alloxan-diabetic rats): useful in reducing the blood glucose level

C[C@H](O)CC(=O)O [L-β-hydroxybutyrate]
antidiabetic properties (alloxan-diabetic rats; test not stated): has demonstrated interesting antidiabetic properties | use by mammalian cells (mammalian cells): very well used by mammalian cells

CCO [ethanol]
redox shift ([NADH]/[NAD^+ ]): an increase in [NADH]/[NAD^+ ]
